“And” between values parts separate entries of the source, which are not always exact repeats. Equal entries are not always repeated.
Experiments:
Type in all cases: cell-based
P. mirabilis = assay: Agarose dilution assay (MIC); conditions: P. mirabilis strain PM002
Candida = assay: Agarose dilution assay (MIC) against Candida
[1] = system: E. coli strain ML-35 inner membrane
[2] = system: DoHH-2, B-cell cell lymphoma; assay: Cell death by Cytotox (Promega) lactate dehydrogenase release; conditions: LDH release
Method: (§1) In addition, APO-peptides and parent peptides are tested against a panel of cancer cell lines. Cell death is measured using the Cytotox (Promega) assay kit which measures the release of lactate dehydrogenase.
(§2) PBL, peripheral blood lymphocytes; HUVEC, human umbilical vein endothelial cells; H460,non-small lung tumor; K562, chronic myelogenous leukemia; DoHH-2, B-cell cell lymphoma; P388, lymphocytic leukemia; P388ADR, lymphocytic leukemia, multidrug resistant; MCF-7, breast carcinoma; MCF-7ADR, breast carcinoma, multidrug resistant.

[3] = system: H460, non-small lung tumor; assay: as above; conditions: LDH release
Method: as §1, §2

[4] = system: HUVEC, human umbilical vein endothelial cells; assay: as above; conditions: LDH release
Method: as §1, §2

[5] = system: K562, chronic myelogenous leukemia; assay: as above; conditions: LDH release
Method: as §1, §2

MCF-7, breast carcinoma = assay: as above; conditions: LDH release
Method: as §1, §2

[6] = system: P388, lymphocytic leukemia; assay: as above; conditions: LDH release
Method: as §1, §2

[7] = system: PBL, peripheral blood lymphocytes; assay: as above; conditions: LDH release
Method: as §1, §2

a bacterial strain = assay: Killing curves, combination of cationic peptide and antibiotic agent; conditions: in combination with vancomycin, FIG. 3E
Method: As used herein, “synergy” refers to the in vitro effect of administration of a combination of a cationic peptide and antibiotic agent such that (I) the fractional inhibitory concentration (FIC) is less than or equal to 0.5 in an FIC assay described herein; or (2) there is at least a 100-fold (21og10) increase in killing at 24 hours for the combination as compared with the antibiotic agent alone in a time kill curve assay as described herein.
Time kill curves resulting from combination of cationic peptide and antibiotic agent are compared to that resulting from agent alone.
The assay is performed as described above except that duplicate tubes are set up for each concentration of the antibiotic agent alone and of the combination of antibiotic agent and cationic peptide.

ILRWPWWPWRRK [MBI 11B7CN]
MIC (P. mirabilis): >128 µg/mL | MIC (Candida; C. albicans CA001): 64 µg/mL | MIC (Candida; C. albicans CA002): 32 µg/mL | MIC (Candida; C. albicans CA003): 64 µg/mL | MIC (Candida; C. albicans CA004): 32 µg/mL | MIC (Candida; C. albicans CA005): 32 µg/mL | MIC (Candida; C. albicans CA006): 64 µg/mL | MIC (Candida; C. albicans CA007): 64 µg/mL | MIC (Candida; C. albicans CA008): 32 µg/mL | MIC (Candida; C. albicans CA009): 32 µg/mL | MIC (Candida; C. albicans CA010): 64 µg/mL | MIC (Candida; C. albicans CA011): 64 µg/mL | MIC (Candida; C. albicans CA012): 64 µg/mL | MIC (Candida; C. albicans CA013): 64 µg/mL | MIC (Candida; C. albicans CA014): 32 µg/mL | MIC (Candida; C. albicans CA015): 64 µg/mL | MIC (Candida; C. albicans CA016): 64 µg/mL | MIC (Candida; C. albicans CA017): 64 µg/mL | MIC (Candida; C. albicans CA018): 64 µg/mL | MIC (Candida; C. albicans CA019): 64 µg/mL | MIC (Candida; C. albicans CA020): 32 µg/mL | MIC (Candida; C. albicans CA021): 32 µg/mL | MIC (Candida; C. albicans CA022): 32 µg/mL | MIC (Candida; C. albicans CA023): 64 µg/mL | MIC (Candida; C. albicans CA024): 8 µg/mL | MIC (Candida; C. glabrata CGL001): 128 µg/mL | MIC (Candida; C. glabrata CGL002): 128 µg/mL | MIC (Candida; C. glabrata CGL003): 128 µg/mL | MIC (Candida; C. glabrata CGL004): 128 µg/mL | MIC (Candida; C. glabrata CGL005): 128 µg/mL | MIC (Candida; C. glabrata CGL009): 128 µg/mL | MIC (Candida; C. glabrata CGL010): 128 µg/mL | MIC (Candida; C. krusei CKR001): 1 µg/mL | MIC (Candida; C. tropicalis CTR001): 4 µg/mL | MIC (Candida; C. tropicalis CTR002): 8 µg/mL | MIC (Candida; C. tropicalis CTR003): 8 µg/mL | MIC (Candida; C. tropicalis CTR004): 8 µg/mL | MIC (Candida; C. tropicalis CTR005): 4 µg/mL | MIC (Candida; C. tropicalis CTR006): 8 µg/mL | MIC (Candida; C. tropicalis CTR007): 8 µg/mL | MIC (Candida; C. tropicalis CTR008): 4 µg/mL | MIC (Candida; C. tropicalis CTR009): 4 µg/mL | time of maximum activity in growth cycle [1]: 140 min and 230 min | LC50 ± S.E., DoHH-2 [2]: 16.5 ± 3 µg/mL | LC50 ± S.E., H460 [3]: 26 ± 25 µg/mL | LC50 ± S.E., HUVEC [4]: 90 ± 23 µg/mL | LC50 ± S.E., K562 [5]: 34 ± 25 µg/mL | LC50 ± S.E., MCF-7 (MCF-7, breast carcinoma): >700 µg/mL | LC50 ± S.E., P388 [6]: 13.8 µg/mL | LC50 ± S.E., PBL [7]: 24 ± 10 µg/mL

KWKSFIKKLTSAAKKVVTTAKPLISS [MBI 26]
killing by combination compared with peptide or antibiotic agent alone (a bacterial strain): greater killing than either peptide or antibiotic agent alone
